According to US7220751B2, “Quinazoline derivatives and drugs” (Nippon Shinyaku Co., Ltd., priority 2001, dated 2007):
Structures can show the parent of a compound that is named as a salt. Marks after values point to notes of the source that are not given here.

Tests used:
[1] = molecular target: T1, human μ receptor (Homo sapiens, UniProt P35372); test: μ receptor binding test ([3H]-diprenorphine); settings: human μ receptor expressing cell membrane preparation; 0.13 nM [3H]-diprenorphine; 25° C., 90 minutes; read-out: μ preceptor Ki
T1 construct: purchased Receptor Biology, Inc
T1 sequence (P35372 whole entry): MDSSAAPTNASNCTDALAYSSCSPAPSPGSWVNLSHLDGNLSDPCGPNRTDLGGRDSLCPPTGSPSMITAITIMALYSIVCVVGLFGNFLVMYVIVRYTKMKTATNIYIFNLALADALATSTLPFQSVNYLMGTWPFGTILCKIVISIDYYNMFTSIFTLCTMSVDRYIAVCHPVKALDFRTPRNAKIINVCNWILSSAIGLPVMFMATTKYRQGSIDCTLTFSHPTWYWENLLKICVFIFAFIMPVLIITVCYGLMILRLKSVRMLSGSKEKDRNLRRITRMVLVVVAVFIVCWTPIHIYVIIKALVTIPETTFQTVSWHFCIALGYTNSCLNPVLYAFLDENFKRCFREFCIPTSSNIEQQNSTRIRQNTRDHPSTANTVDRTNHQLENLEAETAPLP
Description: A nociceptin receptor is a member of an opioid receptor family. An inventive compound was examined for its binding capacity to a μ receptor which is also a member of an opioid receptor family and which is involved in an analgesic effect and a dependency, and compared with the binding capacity to the nociceptin receptor.
A human μ receptor expressing cell membrane preparation (Receptor Biology, Inc) was adjusted at the protein concentration of 8.5 μg/ml using a Tris-buffer solution [50 mM Tris-HCl (pH 7.8), 5 mM MgCl2, 1 mM EGTA, 0.1% BSA]. The solution incubated with [^3H]-diprenorphine (diluted at the final concentration of 0.13 nM using Tris-buffer) and a test compound at 25° C. for 90 minutes. The membrane was recovered using a cell harvester onto a GF/B filter which had previously been treated with 0.3% PEI, and then washed further 4 times with a washing solution [50 mM Tris-HCl (pH 7.8), 4° C.]. The filter was transferred into a counting vial. Adequate amount of scintillator was added and the radioactivity was measured using a liquid scintillation counter. A non-specific binding was regarded as a binding of [^3H]-diprenorphine in the presence of 100 μM naloxone, and a specific binding was regarded as the difference between the total binding and the non-specific binding. Based on the % binding inhibition in the presence of the test compound, an IC50 value was determined, and used together with the Kd value of [^3H]-diprenorphine for calculating the Ki value of the test compound.

[2] = molecular target: T2, human nociceptin receptor (Homo sapiens, UniProt P41146); test: Nociceptin receptor binding test ([3H]-nociceptin); settings: membranes of human nociceptin receptor expressing cell; 0.08 nM [3H]-nociceptin; 25° C., 60 minutes
T2 construct: expressed in transfected cells
T2 sequence (P41146 whole entry): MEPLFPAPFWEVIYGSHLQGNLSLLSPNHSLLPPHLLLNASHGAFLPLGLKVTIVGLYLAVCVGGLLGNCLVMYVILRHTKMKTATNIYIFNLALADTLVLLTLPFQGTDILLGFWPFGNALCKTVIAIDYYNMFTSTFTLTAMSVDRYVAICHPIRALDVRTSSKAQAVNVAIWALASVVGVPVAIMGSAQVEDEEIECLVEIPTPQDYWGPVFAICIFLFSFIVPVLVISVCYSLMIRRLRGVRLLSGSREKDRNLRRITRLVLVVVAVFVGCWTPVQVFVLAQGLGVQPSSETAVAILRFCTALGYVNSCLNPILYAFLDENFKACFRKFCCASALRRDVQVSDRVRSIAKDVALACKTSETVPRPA
Description: Nociceptin Receptor Binding Test
A suspension of cell membrane obtained from a human nociceptin receptor expressing cell was adjusted at a protein concentration of 5 to 10 μg/ml using a Tris-buffer solution [50 mM Tris-HCl (pH 7.8), 5 mM MgCl2, 1 mM EGTA, 0.1% BSA]. The solution was incubated with [^3H]-nociceptin (diluted at the final concentration of 0.08 nM using Tris-buffer) and a test compound at 25° C. for 60 minutes. The membrane was recovered using a cell harvester onto a glass fiber (GF) filter GF/B which had previously been treated with 0.3% polyethyleneimine (PEI), and then washed further 4 times with a washing solution[50 mM Tris-HCl (pH 7.8), 4° C.]. The filter was transferred into a counteing vial. Adequate amount of scintillator was added to the vial and the radioactivity was measured using a liquid scintillation counter. A non-specific binding was regarded as a binding of [^3H]-nociceptin in the presence of 10 μM nociceptin, and a specific binding was regarded as the difference between the total binding and the non-specific binding. Based on the % binding inhibition in the presence of the test compound, an IC50 value was determined, and used together with the Kd value of [^3H]-nociceptin for calculating the Ki value of the test compound.

[3] = Mouse formalin test; type: in vivo; settings: male ddy mouse, 30 mg/kg subcutaneously 15 min before 1% formalin, mean
Description: A male ddy strain mouse (4 to 5 weeks old) was kept at a temperature of 21 to 25° C. and a humidity of 45 to 65% in a breeding room under the conditions of a constant lighting cycle (light: 12 hours, dark: 12 hours) while allowing the animal to access a feed and water ad libitum, whereby acclimatizing the animal over a period of 1 week or longer. Each 6 to 7 animals were assigned to each group.
After the mouse was acclimatized to an observation cage sufficiently, it was treated with a test compound, and then after 15 minutes 20 μl of 1% formalin solution was given subcutaneously to a hind limb. The test compound was dissolved in a saline, and immediately given to the mouse subcutaneously at the dose of 0.1 ml per 10 g body weight using a 27G needle. A control group received the physiological saline. The animals were returned to their observation cages, and examined for the duration of the aversive responses such as licking or biting the posterior limb using a stopwatch over a period of 30 minutes.
The significance of the difference was analyzed by the one-way layout analysis of variance between the control group and a treatment group followed by Dunnett's multiple comparison.

[4] = 0~10 min after formalin treatment (phase 1)
[5] = 10~30 min after formalin treatment (phase 2)

Ki [1] | Ki [2] | SMILES | Duration of the abersive response [3, 4] | Duration of the abersive response [3, 5]
0.206 µM | 0.006 µM | COc1ccc2nc(C=Cc3ccccn3)nc(N[C@@H]3CC[C@H](N)C[C@@H]3C)c2c1 (relative stereo) [Example 51, cis-4-amino-cis-2-methyl-N-{6-methoxy-2-[2-(2-pyridyl)ethenyl]quinazolin-4-yl}cyclohexylamine Trihydrochloride] |  | 
0.313 µM | 0.029 µM | Cc1ccc2nc(C=Cc3ccc(Cl)cc3)nc(N[C@H]3CC[C@@H](N)CC3)c2c1 [Example 22, cis-4-[2-(4-chlorostyryl)-6-methylquinazolin-4-yl]aminocyclohexylamine dihydrochloride] |  | 
 |  | Cc1ccc2nc(C=Cc3cccc(C)n3)nc(NC3CCC(N)CC3C)c2c1.Cl.Cl.Cl (stereo not drawn) [Example 52, cis-4-amino-cis-2-methyl-N-{6-methyl-2-[2-(6-methyl-2-pyridyl)ethenyl]quinazolin-4-yl}cyclohexylamine Trihydrochloride] | 79.4** sec | 77.0** sec
0.288 µM | 0.018 µM | Cc1ccc2nc(C=Cc3ccccn3)nc(N[C@H]3CC[C@@H](N)CC3)c2c1.Cl.Cl.Cl [Example 40, cis-4-{6-methyl-2-[2-(2-pyridyl)ethenyl]quinazolin-4-yl}aminocyclohexylamine Trihydrochloride] | 64.5** sec | 77.6* sec
0.492 µM | 0.023 µM | COc1ccc2nc(C=Cc3ccccn3)nc(N[C@H]3CC[C@@H](N)CC3)c2c1 [Example 44, cis-4-{6-methoxy-2-[2-(2-pyridyl)ethenyl]quinazolin-4-yl}aminocyclohexylamine Trihydrochloride] |  | 
0.234 µM | 0.002 µM | Cc1ccc2nc(C=Cc3ccccn3)nc(N[C@H]3CC[C@@H](N)C[C@H]3C)c2c1 [Example 58, (1S, 2R, 4R)-4-amino-2-methyl-N-{6-methyl-2-[2-(2-pyridyl)ethenyl]quinazolin-4-yl}cyclohexylamine Trihydrochloride] |  | 
0.207 µM | 0.004 µM | Cc1ccc2nc(C=Cc3ccccn3)nc(N[C@@H]3CC[C@H](N)C[C@@H]3C)c2c1 (relative stereo) [Example 1, cis-4-amino-cis-2-methyl-N-{6-methyl-2-[2-(2-pyridyl)ethenyl]quinazolin-4-yl}cyclohexylamine Trihydrochloride] | 47.5** sec | 74.5* sec
0.284 µM | 0.042 µM | Cc1ccc2nc(C=Cc3ccccn3)nc(N[C@@H]3CC[C@H](N)C[C@@H]3C)c2c1 [Example 57, (1R, 2S, 4S)-4-amino-2-methyl-N-{6-methyl-2-[2-(2-pyridyl)ethenyl]quinazolin-4-yl}cyclohexylamine Trihydrochloride] |  | 
0.204 µM | 0.11 µM | COc1ccc2nc(C=Cc3ccc(Cl)cc3)nc(N[C@H]3CCCC[C@H]3N)c2c1 (relative stereo) [Example 25, cis-2-[2-(4-chlorostyryl)-6-methoxyquinazolin-4-yl]aminocyclohexylamine dihydrochloride] |  | 
